Among the test systems are RPMI-8226; DMS-273; NCI-H522; RXF 393; KM-20L2; NCI-H23; SK-MEL-2; EKVX; HOP-62; XF498; HCT-15; DLD-1; SK-MEL-5; SNB-19; SNB-78; SK-OV-3; LOX IMVI; OVCAR-3; Hs-578T; MCF7.
Test in all cases: NCI tumour cell line growth inhibition, 48 h

SMILES strings stand for the structures.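 Growth conditions: 96-well plates. Treatment: test compound, 48 hours, 5 concentrations. Analysis: linear interpolation between bracketing concentrations; unreached endpoints set to highest concentration. GI50 is the concentration that inhibits growth by half.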 Active and inactive are the calls of the source. Cut-off read from the data, not from the text of the source: active = GI50 up to about 1.1 µM and inactive = higher.

`CC1=CC2=C(C)C3(CC3)[C@@](C)(O)C(=O)C2=C1`: the GI50 in the assay with RPMI-8226 is > 1 µM (active); with DMS-273 it was 0.189 µM (active); in the assay on NCI-H522, 0.145 µM (active); in the assay with RXF 393 it was 0.149 µM (active); in the assay with KM-20L2, 0.213 µM (active); in the assay with NCI-H23, 0.0822 µM (active). Moreover, the GI50 in the assay on SK-MEL-2 is 0.191 µM (active); in the assay on EKVX, 0.535 µM (active); with HOP-62, 0.146 µM (active); with XF498, 0.17 µM (active); with HCT-15, 0.193 µM; with DLD-1, 0.276 µM (active). The GI50 is 0.122 µM (active) in the assay with SK-MEL-5; 0.243 µM (active) in the assay with SNB-19; 0.274 µM (active) in the assay on SNB-78; 0.293 µM (active) in the assay with SK-OV-3; 0.174 µM (active) in the assay with LOX IMVI; 0.182 µM (active) in the assay on OVCAR-3.

On to `COC1=C(N)C(=O)c2nc(C)ccc2C1=O`, for which the GI50 in the assay with RPMI-8226 was 5.21 µM (inactive); in the assay on DMS-273, 1.83 µM (inactive); in the assay with NCI-H522, 1.74 µM (inactive); with RXF 393, 1.67 µM (inactive); with KM-20L2 it was 2.3 µM (inactive); with NCI-H23, 1.47 µM (inactive). In addition, the GI50 in the assay with SK-MEL-2 is 1.74 µM (inactive); with EKVX it was 2.77 µM (inactive); with HOP-62 it was 1.57 µM (inactive); in the assay with XF498, 1.51 µM (inactive); with HCT-15 it was 1.92 µM; with DLD-1 it was 2.31 µM (inactive). Further, the GI50 in the assay on SK-MEL-5 is 1.7 µM (inactive); in the assay with SNB-19 it was 1.91 µM (inactive); in the assay with SNB-78, 3.52 µM (inactive); in the assay with SK-OV-3, 8.04 µM (inactive); in the assay with LOX IMVI, 0.826 µM (active); with OVCAR-3 it was 2.02 µM (inactive).

As to `Cn1c2c(c3ccccc31)CCN(CCCCN1CCN(c3ccccc3)CC1)C2=O`, the GI50 is 17 µM (inactive) in the assay on RPMI-8226; 12.4 µM (inactive) in the assay on Hs-578T; 31.4 µM (inactive) in the assay with DMS-273; 42 µM (inactive) in the assay on NCI-H522; 19.2 µM (inactive) in the assay on MCF7; 10.8 µM (inactive) in the assay with RXF 393. Besides, the GI50 was 4.29 µM (inactive) in the assay on KM-20L2; 35.6 µM (inactive) with NCI-H23; 24 µM (inactive) in the assay with SK-MEL-2; > 38.5 µM (inactive) with EKVX; 85.7 µM (inactive) with HOP-62; 14.1 µM (inactive) in the assay with XF498. Also, the GI50 is 17.2 µM with HCT-15; 19.3 µM (inactive) with DLD-1; 5.69 µM (inactive) with SK-MEL-5; 75.9 µM (inactive) with SNB-19; > 100 µM (inactive) with SNB-78; > 100 µM (inactive) in the assay on SK-OV-3. The GI50 in the assay on LOX IMVI is 12.8 µM (inactive); in the assay with OVCAR-3, 57.3 µM (inactive).

For `CN(C)CCNC(=O)c1cccc2ccc(-c3ccc(Br)cc3)nc12`, the GI50 is 1.29 µM (inactive) with RPMI-8226; 1.16 µM (inactive) in the assay with DMS-273; 1.6 µM (inactive) in the assay on NCI-H522; 2.92 µM (inactive) with MCF7; 3.96 µM (inactive) in the assay with RXF 393; 1.78 µM (inactive) in the assay on KM-20L2. Also, the GI50 in the assay on NCI-H23 was 3.47 µM (inactive); in the assay with SK-MEL-2 it was 3.09 µM (inactive); in the assay with EKVX, 2.61 µM (inactive); in the assay with HOP-62, 0.832 µM (active); with XF498 it was 2.16 µM (inactive); in the assay on HCT-15 it was 2.78 µM. The GI50 in the assay with DLD-1 was 2.59 µM (inactive); with SK-MEL-5, 1.46 µM (inactive); in the assay with SNB-19 it was 4.14 µM (inactive); with SNB-78, 8.87 µM (inactive); with SK-OV-3 it was 2.82 µM (inactive); with LOX IMVI, 1.64 µM (inactive). Also, the GI50 in the assay on OVCAR-3 was 3.27 µM (inactive).

On to `O=C1OC2C(O)COC2(O)C1(O)Cc1c[nH]c2ccccc12.O=C1OC2C(O)COC2(OCc2c[nH]c3ccccc23)C1O` (configuration not stated), for which the GI50 in the assay on RPMI-8226, in the assay with DMS-273, with NCI-H522, with RXF 393, with KM-20L2 and in the assay with NCI-H23 was > 100 µM (inactive) each time. In addition, the GI50 was > 100 µM (inactive) with SK-MEL-2; > 100 µM (inactive) with EKVX; > 100 µM (inactive) in the assay with HOP-62; > 100 µM (inactive) with XF498; more than 100 µM in the assay with HCT-15; > 100 µM (inactive) in the assay with DLD-1. For the same compound, the GI50 in the assay with SK-MEL-5, in the assay with SNB-19, with SNB-78, in the assay with SK-OV-3, in the assay on LOX IMVI and in the assay with OVCAR-3 was > 100 µM (inactive) each time.

With `CCc1cccc(C)c1NC(=O)CC1C(=O)Nc2ccccc2S1(=O)=O` (configuration not stated), the GI50 is 13.9 µM (inactive) in the assay with RPMI-8226; 7.01 µM (inactive) in the assay with DMS-273; 15.8 µM (inactive) in the assay with NCI-H522; 15.1 µM (inactive) in the assay with RXF 393; 18.5 µM (inactive) in the assay on KM-20L2; 15.7 µM (inactive) with NCI-H23. The GI50 in the assay on SK-MEL-2 was 21.1 µM (inactive); with EKVX it was 15.5 µM (inactive); with XF498 it was 12.5 µM (inactive); with HCT-15, 12 µM; in the assay on DLD-1, 15.8 µM (inactive); in the assay with SK-MEL-5, 13.7 µM (inactive). For the same compound, the GI50 in the assay on SNB-19 is 27.5 µM (inactive); in the assay on SNB-78, 21.1 µM (inactive); in the assay on LOX IMVI, 13.2 µM (inactive); in the assay on OVCAR-3 it was 15.2 µM (inactive).

On to `COC(=O)CCC(NC(=S)N/N=C(\C)c1cccs1)C(=O)OC` (configuration not stated), for which the GI50 in the assay on DMS-273, in the assay with NCI-H522, in the assay on RXF 393, in the assay with KM-20L2, with NCI-H23 and in the assay on SK-MEL-2 was > 100 µM (inactive) throughout. The GI50 was > 100 µM (inactive) in the assay on EKVX; > 100 µM (inactive) in the assay with HOP-62; > 100 µM (inactive) in the assay with XF498; more than 100 µM in the assay on HCT-15; > 100 µM (inactive) in the assay with DLD-1; > 100 µM (inactive) in the assay on SK-MEL-5. The GI50 in the assay on SNB-19, in the assay with SNB-78, with SK-OV-3, in the assay on LOX IMVI and with OVCAR-3 was > 100 µM (inactive) each time.

For `Cc1nc2c(s/c(=N\N)n2-c2ccccc2)c(=O)[nH]1`, the GI50 in the assay with RPMI-8226, in the assay on DMS-273, with NCI-H522, in the assay on RXF 393, in the assay on KM-20L2 and with NCI-H23 was > 100 µM (inactive) in each case. Further, the GI50 in the assay with SK-MEL-2 was > 100 µM (inactive); in the assay with EKVX, > 100 µM (inactive); with HOP-62 it was > 100 µM (inactive); with XF498, > 100 µM (inactive); in the assay on HCT-15, more than 100 µM; with DLD-1 it was > 100 µM (inactive). The GI50 with SK-MEL-5, in the assay with SNB-19, in the assay on SNB-78, in the assay on SK-OV-3, in the assay with LOX IMVI and in the assay on OVCAR-3 was > 100 µM (inactive) each time.

For the compound `O=C(O)COc1ccc(C(=O)/C(SS/C(C(=O)c2ccc(OCC(=O)O)c(Cl)c2Cl)=C2\C=C(c3ccc(Br)cc3)SS2)=C2/C=C(c3ccc(Br)cc3)SS2)c(Cl)c1Cl`, the GI50 in the assay on RPMI-8226 was 4.73 µM (inactive); in the assay on Hs-578T it was 3.57 µM (inactive); with DMS-273 it was 23.8 µM (inactive); with NCI-H522 it was 0.798 µM (active); in the assay with MCF7, 0.0513 µM (active); with KM-20L2, 39.6 µM (inactive). Moreover, the GI50 with NCI-H23 is 4.62 µM (inactive); in the assay with SK-MEL-2, 6.61 µM (inactive); in the assay on EKVX, 28 µM (inactive); in the assay on HOP-62, 12.9 µM (inactive); with XF498 it was 3.19 µM (inactive); with HCT-15, 4.92 µM. Moreover, the GI50 in the assay with DLD-1 was 6.14 µM (inactive); in the assay on SK-MEL-5, 11.9 µM (inactive); in the assay on SNB-19, 5.55 µM (inactive); in the assay with SNB-78, 4.57 µM (inactive); in the assay on SK-OV-3 it was 21.3 µM (inactive); in the assay on LOX IMVI, 2.69 µM (inactive). The GI50 with OVCAR-3 is 3.73 µM (inactive).

As for `COc1ccc(C2COc3c(ccc(O)c3C)C2)cc1OC` (configuration not stated), the GI50 with RPMI-8226 was 17.7 µM (inactive); in the assay on DMS-273, 57.4 µM (inactive); with NCI-H522 it was 39.7 µM (inactive); in the assay with MCF7, 81.7 µM (inactive); in the assay with RXF 393, 24 µM (inactive); in the assay with KM-20L2, 91.6 µM (inactive). The GI50 with NCI-H23 was 67.8 µM (inactive); in the assay on SK-MEL-2, 69.7 µM (inactive); with EKVX, 136 µM (inactive); in the assay with HOP-62, 163 µM (inactive); with XF498, 22.9 µM (inactive); in the assay on HCT-15 it was 57.8 µM. For the same compound, the GI50 was 42 µM (inactive) in the assay with DLD-1; 11.7 µM (inactive) with SK-MEL-5; 143 µM (inactive) with SNB-19; 157 µM (inactive) in the assay with SNB-78; > 187 µM (inactive) in the assay on SK-OV-3; 12.9 µM (inactive) with LOX IMVI. Moreover, the GI50 in the assay with OVCAR-3 is 70.1 µM (inactive).

(Values after ChEMBL document CHEMBL1201862, “PubChem BioAssay data set” (2004).)
